Experimental data taken from patent US20150359668A1, “LIGHT DELIVERY DEVICE AND RELATED COMPOSITIONS, METHODS AND SYSTEMS” (CALIFORNIA INSTITUTE OF TECHNOLOGY, priority 2011, published 2015).
“And” between values parts separate entries of the source, which are not always exact repeats. Identical values can stand only once. Like-named read-outs stand apart in the source and are kept apart here. Blank lines part the entries; values can stand above or below the compound they belong to.

Tests used:
[1] = reaction with singlet oxygen; cited from earlier work
guinea pig eyes = assay: guinea pig form-deprivation myopia and normal ocular growth after subconjunctival treatment; conditions: Set A, eyes enucleated immediately after treatment
[2] = physiological pH; cited from earlier work
cell viability = conditions: cited from earlier work
cornea [3] = assay: drug diffusion into the cornea of intact eyes (extraction assay, diffusion model fit); conditions: for diffusivity, D / partition coefficient, k: from DPBS
Procedure: Siena for Medical Science supplied porcine eyes from 3-4 month old swine. Eyes were stored in ocular balanced saline solution on ice until use within 48 hours post mortem. […] The epithelial cell layer was removed by scraping with a scalpel. […] The drug solution containing the eye was gently agitated using a rocker for a specified “drug contact time” (tc,cornea ranging from 0 to 4 hours). After the drug contact time, the eye was removed from the drug solution, and excess solution on the cornea was dabbed away with a Kimwipe. The eye was dissected using a scalpel blade and a pair of scissors to cut around the corneoscleral limbus to separate out the cornea. The tissue section was placed onto a trephine punch to cut out a 9.5-mm diameter corneal cross-section.
(§1) Quantitative assay of the amount of drug delivered—Experiments were performed for five drug contact times (four samples each): for the cornea, tc,cornea=0.25, 0.5, 1, 2, and 4 hrs, and for the sclera, tc,sclera=0.5, 2, 4, 7.5, and 120 hrs. Each experiment was repeated four times. For each experiment, the 9.5-mm diameter tissue cross-section obtained as described above was placed into a 50 mL centrifuge tube and immersed in 50 mL of extractant (doubled-distilled water for cornea or DPBS for sclera) then placed on a rocker to extract the drug molecules (FIG. 40). […] After a first extraction time te,1 of 8 hours, the tissue specimen was then transferred into another 50 mL of fresh extractant and the extract was retained for analysis.
(§2) The concentration of the drug in the extract was determined using fluorimetry. […] The fluorescence of each extract was measured and concentration was determined based on calibration curves prepared for each compound using a series of solutions with known concentrations. The extraction process was repeated using successively longer extraction times until there was no detectable fluorescence in the supernatant.
(§3) Porcine eyes closely resemble a sphere with diameter ˜25 mm. The cornea and sclera are the targeted tissues and both have thicknesses that are on the order of 1 mm. Since these tissue thicknesses are less than a tenth of the diameter of the eye, they are modeled as semi-infinite slabs. Each tissue is approximated as a uniform material. Fick's diffusion equation is given by
(§4) where C(z,t) is the drug concentration inside the tissue, t is the time since the exterior surface of the tissue was placed in contact with the drug solution, z is the distance into the tissue from its exterior surface, and D is the diffusion coefficient. […] For short contact times, the concentration falls to zero before the profile reaches the endothelium. For longer contact times, the boundary condition that the concentration falls to zero far into the system is still used as a first approximation (neglecting the change in material properties at the endothelium and neglects different transport processes in the aqueous or vitreous).
(§5) where area represents the cross-sectional area of the tissue sample and L is the thickness of the tissue sample. At long drug contact time, the predicted concentration changes very slowly and approaches a value governed by the partition coefficient.
(§6) with i being the individual data point and N being the total data points used for the fit. Data fitting was performed by writing a program in MATLAB software.

collagen gel = collagen gel photorheology: storage modulus during photo-activated cross-linking; conditions: for cross-linking rate as % of the rate without singlet oxygen quenchers: in air; for modulus change during the last 10 minutes, no irradiation / ΔG′ over the 30-minute period without irradiation: 0.02% eosin Y or 0.1% riboflavin, 0 mW/cm^2; for modulus change during the 10 minutes after cessation of irradiation / change of storage modulus ΔG′ over the 30-minute irradiation: 0.02% eosin Y, 0.1% riboflavin; for modulus change during the 10 minutes after cessation of irradiation: 6 mW/cm^2, 3 mW/cm^2; for change of storage modulus ΔG′ over the 30-minute irradiation: 6 mW/cm^2 at 530±15 nm, 3 mW/cm^2 at 370±12 nm
cornea [4] = assay: model of photodynamic collagen cross-linking profile in the cornea
Text: Design of experiments—The collagen gel photorheological technique discussed in Examples 29-31 was used to gather collagen cross-linking rate data in order to model the extent and distribution of cross-link formation in the tissue. Collagen gel samples have uniform drug concentration profiles based on the preparation technique developed Examples 29-31. The protocols for collagen gel preparation and photorheological measurement are described in the Methods Section of Example 29-31. The pairs of drug concentrations and collagen gel thicknesses were selected such that the intensity profile is approximately uniform throughout the sample. Based on light intensity calculations, this is achieved when the ratio of light penetration depth over sample thickness is 1.2. The light intensity profile in the sample is given by:
Design of the model—Photodynamic collagen cross-linking depends on both the local photosensitizer concentration and the light intensity which are functions of treatment parameters: drug concentration, contact time (duration the drug is in contact with the tissue), delay time (period between end of contact time and beginning of irradiation), and irradiation time (FIGS. 46A-46C). […] The concentration profile can be calculated using Fick's diffusion equation. The light intensity also varies along the tissue as determined by Beer's law. […]

sclera [5] = assay: drug diffusion into the sclera of intact eyes (extraction assay, diffusion model fit); conditions: for diffusivity, D / partition coefficient, k: from DPBS
Text: Orbital tissues were removed with scissors to expose the sclera. […] After the contact time, the eye was removed from the drug solution, and excess solution on the sclera was dabbed away with a Kimwipe. The eye was dissected using a scalpel blade and a pair of scissors to obtain a posterior scleral section on the temporal side near the optic nerve. The tissue section was placed onto a trephine punch to cut out a 9.5-mm diameter cross-section.
as §1, §2, §3, §4, §5, §6

cornea [6] = conditions: fluorescein value used for riboflavin in earlier studies; cited from earlier work
sclera [7] = conditions: subconjunctival delivery; cited from earlier work
keratocytes = conditions: human, in vivo; cited from earlier work
posterior globe = conditions: rabbit, in vivo; cited from earlier work
cornea [8] = conditions: sodium azide added to the riboflavin treatment solution; cited from earlier work
sclera [9] = conditions: cited from earlier work
[10] = in the absence of oxygen (in argon), 30-minute irradiation
[11] = in the presence of oxygen (in air), 30-minute irradiation, 0.05% riboflavin 370 nm or 0.02% eosin Y 530 nm

Compound: N[C@@H](CS)C(=O)O [Cystei e, Cysteine]
k1O2 × 10^−7 M^−1s^−1 [1]: 0.89 × 10^−7 M^−1s^−1

Compound: O=C([O-])c1ccccc1-c1c2cc(Br)c(=O)c(Br)c-2oc2c(Br)c([O-])c(Br)cc12.[Na+].[Na+] [Eosin Y, eosin Y]
distribution in the sclera after subconjunctival injection (guinea pig eyes): pink staining from Eosin Y over the entire sclera | ionization in solution [2]: negatively ionized | concentration with excellent cell viability (up to) (cell viability): up to 20 mM | drug contact time at which delivered amount levels off (cornea [3]; cornea): 2 h | diffusivity, D (cornea [3]; cornea): 62 μm^2/s and 62 ± 22 μm^2/s | partition coefficient, k (cornea [3]; cornea): 4.3±0.7 and 4.3 | diffusivity, D (cornea [3]; cornea, listed as eosin Y): 62 μm^2/s | partition coefficient, k (cornea [3]; cornea, listed as eosin Y): 4.3 | diffusion coefficient without the binding effect, Dab (cornea [3]; cornea, Dab=kD): 267 μm^2/s | calculated permeability (cornea [3]; through porcine cornea): 0.31 μm/s | cross-linking rate as % of the rate without singlet oxygen quenchers (collagen gel; 10 mM ascorbic acid): 43±23% | modulus change during the last 10 minutes, no irradiation (collagen gel): 59±34 Pa | ΔG′ over the 30-minute period without irradiation (collagen gel): −23±76 Pa | modulus change during the 10 minutes after cessation of irradiation (collagen gel): 61±136 Pa | change of storage modulus ΔG′ over the 30-minute irradiation (collagen gel): 793±118 Pa | cross-linking rate as % of the rate without singlet oxygen quenchers (collagen gel; 20 mM ascorbic acid): 23±10% | cross-linking rate as % of the rate without singlet oxygen quenchers (collagen gel; 100 mM ascorbic acid): −7±6% | cross-linking rate as % of the rate without singlet oxygen quenchers (collagen gel; 100 mM sodium azide): 34±8% | cross-linking rate in the absence of oxygen (reduced to) (collagen gel; argon vs air): 12% | rate of change in storage modulus, Ġ′ (increased by) (collagen gel; [10]): 3.4±2.3 Pa/min | rate of change in storage modulus, Ġ′ (increased by) (collagen gel; [11]): 28.4±5.1 Pa/min | characteristic time to penetrate the entire cornea, L^2/(4*D) (cornea [4]): ~15 min | permeability (sclera [5]; sclera): 0.099 μm/s | time for the concentration to level off (sclera [5]; sclera): approximately 30 hours | drug in second extract, % of the first extract (sclera [5]; sclera, 2 hours contact time): approximately 20% | diffusivity, D (sclera [5]; sclera): 6.2 ± 1.7 μm^2/s and 6.2 μm^2/s | partition coefficient, k (sclera [5]; sclera): 13.0±1.1 and 13.0 | diffusivity, D (sclera [5]; sclera, listed as eosin Y): 6.2 μm^2/s | partition coefficient, k (sclera [5]; sclera, listed as eosin Y): 13 | diffusion coefficient without the binding effect, Dab (sclera [5]; sclera, Dab=kD): 81 μm^2/s

Compound: N[C@@H](Cc1c[nH]cn1)C(=O)O [Histidine]
k1O2 × 10^−7 M^−1s^−1 [1]: 3.2-3.4 × 10^−7 M^−1s^−1

Compound: CSCC[C@H](N)C(=O)O [Methionine]
k1O2 × 10^−7 M^−1s^−1 [1]: 1.6 × 10^−7 M^−1s^−1

Compound: N[C@@H](Cc1c[nH]c2ccccc12)C(=O)O [Tryptophan]
k1O2 × 10^−7 M^−1s^−1 [1]: 1.3-3 × 10^−7 M^−1s^−1

Compound: N[C@@H](Cc1ccc(O)cc1)C(=O)O [Tyrosine]
k1O2 × 10^−7 M^−1s^−1 [1]: 0.8 × 10^−7 M^−1s^−1

Compound: O=C1OC2(c3ccc(O)cc3Oc3cc(O)ccc32)c2ccccc21 [fluorescein]
diffusion coefficient, D (cornea [6]): 65 μm^2/s

Compound: CO[C@@]12[C@H](COC(N)=O)C3=C(C(=O)C(C)=C(N)C3=O)N1C[C@@H]1N[C@@H]12 [mitomycin-C]
fraction of drug present on the surface of sponges able to diffuse into the sclera (sclera [7]): ~5%

diffusion coefficient without the binding effect, Dab (cornea [3]): 134 μm^2/s | drug contact time at which delivered amount levels off (cornea [3]): 2 h | drug in second extract, % of the first extract (cornea [3]): 1.6-2.5% | diffusion coefficient without the binding effect, Dab (sclera [5]): 41 μm^2/s | drug in 3rd extract relative to the first extract (sclera [5]): 1-3% | drug in 4th extract relative to the first extract (sclera [5]): ≤ 1% | drug in second extract, % of the first extract (sclera [5]): 3-6% | time for the concentration to level off (sclera [5]): approximately 7.5 hours
Compound: riboflavin-5′-monophosphate [reference compound]
anterior stromal depth in which almost all keratocytes undergo apoptosis (keratocytes): 300-350 μm | time to full recovery of the keratocyte population (keratocytes): 6-12 months | ionization in solution [2]: negatively ionized | cross-linking rate as % of the rate without singlet oxygen quenchers (collagen gel; 10 mM sodium azide): 12±20% | modulus change during the last 10 minutes, no irradiation (collagen gel): 32±36 Pa | ΔG′ over the 30-minute period without irradiation (collagen gel): 72±136 Pa | modulus change during the 10 minutes after cessation of irradiation (collagen gel): 70±19 Pa | change of storage modulus ΔG′ over the 30-minute irradiation (collagen gel): 819±85 Pa | cross-linking rate as % of the rate without singlet oxygen quenchers (collagen gel; 20 mM ascorbic acid): −32±11% | cross-linking rate as % of the rate without singlet oxygen quenchers (collagen gel; 100 mM sodium azide): −26±23% | cross-linking rate as % of the optimal rate (0.05% riboflavin) (collagen gel; 0.12% riboflavin concentration, by interpolation): approximately 78% | cross-linking in the absence of oxygen (collagen gel; in argon): no cross-linking occurred | rate of change in storage modulus, Ġ′ (decreased by) (collagen gel; [10]): 4.8±2.3 Pa/min | rate of change in storage modulus, Ġ′ (increased by) (collagen gel; [11]): 28.0±4.7 Pa/min | side-effects in the posterior globe (posterior globe): almost complete loss of the photoreceptors, the outer nuclear layer and the retinal pigment epithelium (RPE) | decrease of cross-linking efficacy (destructive tension of corneal strips) (cornea [8]): 76%

Compound: sulforhodamine
partition coefficient in the sclera (sclera [9]): 13.6
